Laboratory results reported in patent US9708314B2, “Heterocyclic amide compound” (NISSAN CHEMICAL INDUSTRIES, LTD., priority 2013, dated 2017).

Legend:
Format in all cases: in vivo
Triticum aestivum = assay: Test Example 4: effect on crop by application to foliage (diluvial soil, plastic box); details: application to foliage, application herbicide amount 320 g/ha
Summary of the method: (§1)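 Emulsion-formulated compound, diluted to a predetermined g/ha dose, applied by small sprayer to leaves and stems of 14-day-old seedlings grown in sterilized diluvial soil. Effect rated on 0–5 herbicidal-ratio scale three weeks on.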

Zea mays = assay: as above; details: application to foliage, application herbicide amount 320 g/ha
Summary of the method: as §1

Monochoria vaginalis = assay: Test Example 2: herbicidal activity, application during weed generation in submerged conditions; details: Eighteenth Table; application herbicide amount 320 g/ha
Description: (§2) 5 Herbicidal ratio of 90% or more (almost completely withered) 4 Herbicidal ratio of 70% or more and less than 90% 3 Herbicidal ratio of 40% or more and less than 70% 2 Herbicidal ratio of 20% or more and less than 40% 1 Herbicidal ratio of 5% or more and less than 20% 0 Herbicidal ratio of 5% or less (almost no effect) [Test Example 2] Herbicidal Activity Test by Application During Weed Generation in Submerged Conditions After alluvial soil was placed into 1/10000 are of Wagner pot, water was poured and mixed to form a submerged condition having a water depth of 4 cm. Seeds of Echinochloa oryzacola Vasing., Scirpus juncoides, and Monochoria vaginalis were sowed in a mixed manner in the above pot and the pot was placed in the greenhouse of 25° C. to 30° C. to grow the plants. When Echinochloa oryzacola Vasing., Scirpus juncoides, and Monochoria vaginalis were grown to one leaf stage to two leaf stage, the emulsion agent containing the compound of the present invention prepared in accordance with Formulation Example 2 was diluted with water so as to be a predetermined herbicide amount and the diluted compound was applied to the surface of the water. Three weeks after the herbicide application, effects on each plant were investigated in accordance with the criteria of Test Example 1. A: Echinochloa oryzicola Vasing., B: Scirpus juncoides, C: Monochoria vaginalis, D: Leptochloa chinensis, E: Cyperus difformis, F: Digitaria ciliaris, G: Setaria viridis, H: Echinochloa crus-galli var. crus-galli, I: Avena fatua, J: Alopecurus myosuroides, K: Lolium multiflorum Lam., L: Apera spica-venti., M: Abutilon theophrasti, N: Amaranthus retroflexus, O: Chenopodium album, P: Stellaria media, Q: Galium spurium, R: Veronica persica, a: transplanted Oryza sativa, b: directly sowed Oryza sativa, c: Zea mays, d: Glycine max, e: Triticum aestivum, f: Beta vulgaris ssp. vulgaris, and g: Brassica campestris L. The application herbicide amount (g/ha) means an amount that a concentration is adjusted so that, when an application amount is converted into per hectare (1 ha), the herbicide is applied by the number of grams (g) of the described value.

[1] = system: Echinochloa oryzacola Vasing.; assay: as above; details: Eighteenth Table; application herbicide amount 320 g/ha
Description: as §2

Scirpus juncoides = assay: as above; details: Eighteenth Table; application herbicide amount 320 g/ha
Description: as §2

[2] = system: directly sowed Oryza sativa; assay: Test Example 3: effect on crop by application to foliage (Wagner pot, water depth 0.1-0.5 cm); details: Nineteenth Table; application herbicide amount 320 g/ha
Summary of the method: (§3)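 Post-emergence foliar application at a stated g/ha rate to plants grown 14 days from seed in alluvial soil, greenhouse 25–30 °C. Visual score after 3 weeks: 0 (≤5% effect) through 5 (≥90%).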

[3] = system: Echinochloa crus-galli var. crus-galli; assay: Test Example 3: herbicidal effect by application to foliage (Wagner pot, water depth 0.1-0.5 cm); details: Nineteenth Table; application herbicide amount 320 g/ha
Summary of the method: as §3

Leptochloa chinensis = assay: as above; details: Nineteenth Table; application herbicide amount 320 g/ha
Summary of the method: as §3

Cyperus difformis = assay: as above; details: Nineteenth Table; application herbicide amount 320 g/ha
Summary of the method: as §3

Compound | e (Triticum aestivum) effect on crop (Triticum aestivum) | b (Zea mays) effect on crop (Zea mays) | C (Monochoria vaginalis) herbicidal ratio grade (Monochoria vaginalis) | A (Echinochloa oryzicola Vasing.) herbicidal ratio grade [1] | B (Scirpus juncoides) herbicidal ratio grade (Scirpus juncoides) | b (directly sowed Oryza sativa) effect on crop grade [2] | H (Echinochloa crus-galli var. crus-galli) herbicidal ratio grade [3] | D (Leptochloa chinensis) herbicidal ratio grade (Leptochloa chinensis) | E (Cyperus difformis) herbicidal ratio grade (Cyperus difformis)
COc1ccc(-c2nnc3c(C(=O)Nc4nnc(C)o4)ccc(C(F)(F)F)n23)cc1 [1-016] | 0 (Herbicidal ratio of 5% or less (almost no effect)) | 0 (Herbicidal ratio of 5% or less (almost no effect)) | 0 (Herbicidal ratio of 5% or less (almost no effect)) | 3 (Herbicidal ratio of 40% or more and less than 70%) | 0 (Herbicidal ratio of 5% or less (almost no effect)) | 1 (Herbicidal ratio of 5% or more and less than 20%) | 5 (Herbicidal ratio of 90% or more (almost completely withered)) | 5 (Herbicidal ratio of 90% or more (almost completely withered)) | 5 (Herbicidal ratio of 90% or more (almost completely withered))
Cc1nnc(NC(=O)c2ccc(C(F)(F)F)n3c(-c4ccc(Cl)cc4)nnc23)o1 [1-017] | 0 (Herbicidal ratio of 5% or less (almost no effect)) | 0 (Herbicidal ratio of 5% or less (almost no effect)) | 0 (Herbicidal ratio of 5% or less (almost no effect)) | 2 (Herbicidal ratio of 20% or more and less than 40%) | 2 (Herbicidal ratio of 20% or more and less than 40%) | 0 (Herbicidal ratio of 5% or less (almost no effect)) | 4 (Herbicidal ratio of 70% or more and less than 90%) | 3 (Herbicidal ratio of 40% or more and less than 70%) | 4 (Herbicidal ratio of 70% or more and less than 90%)
CSc1nnc2c(C(=O)Nc3nnc(C)o3)ccc(C(F)(F)F)n12 [1-018, N-(5-Methyl-1,3,4-oxadiazol-2-yl)-3-(methylthio)-5-(trifluoromethyl)-[1,2,4]triazol o[4,3-a]pyridine-8-carboxamide] | 0 (Herbicidal ratio of 5% or less (almost no effect)) | 0 (Herbicidal ratio of 5% or less (almost no effect)) | 0 (Herbicidal ratio of 5% or less (almost no effect)) | 0 (Herbicidal ratio of 5% or less (almost no effect)) | 2 (Herbicidal ratio of 20% or more and less than 40%) | 2 (Herbicidal ratio of 20% or more and less than 40%) | 4 (Herbicidal ratio of 70% or more and less than 90%) | 4 (Herbicidal ratio of 70% or more and less than 90%) | 4 (Herbicidal ratio of 70% or more and less than 90%)
COCCOCc1nnc2c(C(=O)Nc3nnc(C)o3)ccc(C(F)(F)F)n12 [1-019] | 3 (Herbicidal ratio of 40% or more and less than 70%) | 2 (Herbicidal ratio of 20% or more and less than 40%) | 3 (Herbicidal ratio of 40% or more and less than 70%) | 4 (Herbicidal ratio of 70% or more and less than 90%) | 3 (Herbicidal ratio of 40% or more and less than 70%) | 4 (Herbicidal ratio of 70% or more and less than 90%) | 5 (Herbicidal ratio of 90% or more (almost completely withered)) | 5 (Herbicidal ratio of 90% or more (almost completely withered)) | 5 (Herbicidal ratio of 90% or more (almost completely withered))
Cc1nnc(NC(=O)c2ccc(C(F)(F)F)n3c(COCC(F)(F)F)nnc23)o1 [1-020] | 1 (Herbicidal ratio of 5% or more and less than 20%) | 0 (Herbicidal ratio of 5% or less (almost no effect)) | 2 (Herbicidal ratio of 20% or more and less than 40%) | 2 (Herbicidal ratio of 20% or more and less than 40%) | 2 (Herbicidal ratio of 20% or more and less than 40%) | 2 (Herbicidal ratio of 20% or more and less than 40%) | 5 (Herbicidal ratio of 90% or more (almost completely withered)) | 4 (Herbicidal ratio of 70% or more and less than 90%) | 4 (Herbicidal ratio of 70% or more and less than 90%)
CCC(C)c1nnc2c(C(=O)Nc3nnc(C)o3)ccc(C(F)(F)F)n12 (stereo not drawn) [1-021] | 1 (Herbicidal ratio of 5% or more and less than 20%) | 1 (Herbicidal ratio of 5% or more and less than 20%) | 3 (Herbicidal ratio of 40% or more and less than 70%) | 4 (Herbicidal ratio of 70% or more and less than 90%) | 4 (Herbicidal ratio of 70% or more and less than 90%) | 3 (Herbicidal ratio of 40% or more and less than 70%) | 5 (Herbicidal ratio of 90% or more (almost completely withered)) | 5 (Herbicidal ratio of 90% or more (almost completely withered)) | 5 (Herbicidal ratio of 90% or more (almost completely withered))
Cc1cc(-c2nnc3c(C(=O)Nc4nnc(C)o4)ccc(C(F)(F)F)n23)no1 [1-022] | 1 (Herbicidal ratio of 5% or more and less than 20%) | 0 (Herbicidal ratio of 5% or less (almost no effect)) | 0 (Herbicidal ratio of 5% or less (almost no effect)) | 2 (Herbicidal ratio of 20% or more and less than 40%) | 2 (Herbicidal ratio of 20% or more and less than 40%) | 2 (Herbicidal ratio of 20% or more and less than 40%) | 5 (Herbicidal ratio of 90% or more (almost completely withered)) | 5 (Herbicidal ratio of 90% or more (almost completely withered)) | 4 (Herbicidal ratio of 70% or more and less than 90%)
CCCc1nnc2c(C(=O)Nc3nnc(C)o3)ccc(C(F)(F)F)n12 [1-024] | 0 (Herbicidal ratio of 5% or less (almost no effect)) | 0 (Herbicidal ratio of 5% or less (almost no effect)) | 0 (Herbicidal ratio of 5% or less (almost no effect)) | 4 (Herbicidal ratio of 70% or more and less than 90%) | 1 (Herbicidal ratio of 5% or more and less than 20%) | 2 (Herbicidal ratio of 20% or more and less than 40%) | 5 (Herbicidal ratio of 90% or more (almost completely withered)) | 4 (Herbicidal ratio of 70% or more and less than 90%) | 4 (Herbicidal ratio of 70% or more and less than 90%)
